Source: patent US9169254B2, “Spiroimidazolone derivative” (Chugai Seiyaku Kabushiki Kaisha, priority 2009, dated 2015)

Biological target: T1, human PTH1 receptor (Homo sapiens, UniProt Q03431)
T1 sequence (Q03431 27-593): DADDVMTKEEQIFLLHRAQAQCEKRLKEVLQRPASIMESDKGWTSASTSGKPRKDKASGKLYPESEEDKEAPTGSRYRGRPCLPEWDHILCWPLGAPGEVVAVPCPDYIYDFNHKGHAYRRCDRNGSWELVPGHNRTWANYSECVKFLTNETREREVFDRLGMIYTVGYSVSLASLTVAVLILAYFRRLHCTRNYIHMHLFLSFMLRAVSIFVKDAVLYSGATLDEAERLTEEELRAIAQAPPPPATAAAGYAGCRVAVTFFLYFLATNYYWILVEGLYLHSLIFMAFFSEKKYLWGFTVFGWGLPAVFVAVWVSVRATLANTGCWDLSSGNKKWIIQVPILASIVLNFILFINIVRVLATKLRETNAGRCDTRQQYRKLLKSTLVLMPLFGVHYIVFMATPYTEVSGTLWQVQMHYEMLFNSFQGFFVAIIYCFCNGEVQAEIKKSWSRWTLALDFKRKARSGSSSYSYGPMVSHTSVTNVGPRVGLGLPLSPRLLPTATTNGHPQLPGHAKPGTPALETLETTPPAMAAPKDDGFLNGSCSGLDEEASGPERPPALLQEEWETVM
Assay: In vitro cAMP signal activity in HKRK-B7 cells (LLC-PK1 cells overexpressing the human PTH1 receptor)
Type: cell-based
Conditions: HKRK-B7 cells; compound at 1×10^−3 M; cAMP produced as percentage of that produced by hPTH(1-34) at 100 nM

cAMP production activity (%)	Compound
100	CCCCCC[C@H]1CCCC[C@@H]1C1=NC2(CCN(S(=O)(=O)CCc3c(C)cc(N(C)C(N)=O)cc3C)CC2)C(=O)N1 [Compound 1057, 1-(4-{2-[2-((1S,2S)-2-hexyl-cyclohexyl)-4-oxo-1,3,8-triaza-spiro[4.5]dec-1-ene-8-sulfonyl]-ethyl}-3,5-dimethyl-phenyl)-1-methyl-urea]
133	Cc1cc(N(C)C(N)=O)cc(C)c1CCS(=O)(=O)N1CCC2(CC1)N=C(C1CCC3(CC1)CC3)NC2=O [Compound 1058, 1-{3,5-dimethyl-4-[2-(4-oxo-2-spiro[2.5]oct-6-yl-1,3,8-triaza-spiro[4.5]dec-1-ene-8-sulfonyl)-ethyl]-phenyl}-1-methyl-urea]
116	Cc1cc(N(C)C(N)=O)cc(C)c1CCS(=O)(=O)N1CCC2(CC1)N=C(C1CCC(=C(F)F)CC1)NC2=O (centres unmarked) [Compound 1059, 1-(4-{2-[2-(4-Difluoromethylene-cyclohexyl)-4-oxo-1,3,8-triaza-spiro[4.5]dec-1-ene-8-sulfonyl]-ethyl}-3,5-dimethyl-phenyl)-1-methyl-urea]
58	CC(=O)Nc1ccc(CCS(=O)(=O)N2CCC3(CC2)N=C(C2CCC(CC(F)F)CC2)NC3=O)c(C)c1 (centres unmarked) [Compound 1060, N-[4-(2-{2-[4-(2,2-Difluoro-ethyl)-cyclohexyl]-4-oxo-1,3,8-triaza-spiro[4.5]dec-1-ene-8-sulfonyl}-ethyl)-3-methyl-phenyl]-acetamide]
55	CC(=O)Nc1ccc(CCS(=O)(=O)N2CCC3(CC2)N=C([C@H]2CC[C@H](CCF)CC2)NC3=O)c(C)c1 [Compound 1061, N-[4-(2-{2-[4-(2-fluoro-ethyl)-cyclohexyl]-4-oxo-1,3,8-triaza-spiro[4.5]dec-1-ene-8-sulfonyl}-ethyl)-3-methyl-phenyl]-acetamide]
65	CCCC[C@]1(F)CC[C@@H](C2=NC3(CCN(S(=O)(=O)CCc4ccc(NC(C)=O)cc4C)CC3)C(=O)N2)CC1 [Compound 1062, N-(4-{2-[2-(4-butyl-4-fluoro-cyclohexyl)-4-oxo-1,3,8-triaza-spiro[4.5]dec-1-ene-8-sulfonyl]-ethyl}-3-methyl-phenyl)-acetamide]
72	CC(=O)Nc1ccc(CCS(=O)(=O)N2CCC3(CC2)N=C(C2CCC(/C=C/CF)CC2)NC3=O)c(C)c1 (centres unmarked) [Compound 1063, N-[4-(2-{2-[4-((E)-3-fluoro-propenyl)-cyclohexyl]-4-oxo-1,3,8-triaza-spiro[4.5]dec-1-ene-8-sulfonyl}-ethyl)-3-methyl-phenyl]-acetamide]
73	CC(=O)Nc1ccc(CCS(=O)(=O)N2CCC3(CC2)N=C(C2CCC(CCCF)CC2)NC3=O)c(C)c1 (centres unmarked) [Compound 1064, N-[4-(2-{2-[4-(3-Fluoro-propyl)-cyclohexyl]-4-oxo-1,3,8-triaza-spiro[4.5]dec-1-ene-8-sulfonyl}-ethyl)-3-methyl-phenyl]-acetamide]
83	CC(=O)Nc1ccc(CCS(=O)(=O)N2CCC3(CC2)N=C(C2CCC(CCCCl)CC2)NC3=O)c(C)c1 (centres unmarked) [Compound 1065, N-[4-(2-{2-[4-(3-chloro-propyl)-cyclohexyl]-4-oxo-1,3,8-triaza-spiro[4.5]dec-1-ene-8-sulfonyl}-ethyl)-3-methyl-phenyl]-acetamide]
83	CC(=O)Nc1ccc(CCS(=O)(=O)N2CCC3(CC2)N=C(C2CCC(=CCCF)CC2)NC3=O)c(C)c1 (centres unmarked) [Compound 1066, N-[4-(2-{2-[4-(3-Fluoro-propylidene)-cyclohexyl]-4-oxo-1,3,8-triaza-spiro[4.5]dec-1-ene-8-sulfonyl}-ethyl)-3-methyl-phenyl]-acetamide]
69	CC(=O)Nc1ccc(CCS(=O)(=O)N2CCC3(CC2)N=C([C@H]2CC[C@H](CC=C(F)F)CC2)NC3=O)c(C)c1 [Compound 1067, N-[4-(2-{2-[4-(3,3-difluoro-allyl)-cyclohexyl]-4-oxo-1,3,8-triaza-spiro[4.5]dec-1-ene-8-sulfonyl}-ethyl)-3-methyl-phenyl]-acetamide]
